Earlier results as cited in patent US20220409569A1, “Cannabinoid Products with High Bioavailability” (The Chemist's Cabinet, LLC, priority 2019, published 2022).

Settings: oral administration

Question: Which bioavailability does the source give for C=C(C)[C@@H]1CCC(C)=C[C@H]1c1c(O)cc(CCCCC)cc1O [CBD, cannabidiol] here?
Answer: ~6%

Question: With CCCCCc1cc(O)c2c(c1)OC(C)(C)[C@@H]1CCC(C)=C[C@@H]21 [THC, tetrahydrocannabinol] as the molecule, how does the bioavailability read?
Answer: 4%-12%
